Measurements as given in US9145425B2, “Cephem compound having catechol group” (SHIONOGI & CO., LTD., priority 2010, dated 2015).
In brackets after ≈: the same amount, converted by molar mass.

Key:
Type in all cases: cell-based
[1] = system: Klebsiella pneumoniae ATCC 700603; assay: Minimum Inhibitory Concentration (MIC), agar plate incubation, Japan Society for Chemotherapy standard method; details: Klebsiella pneumoniae ATCC 700603, SHV-18, ESBL producer strain, 1000 cfu/spot, sensitive disc medium; for MIC: ATCC700603, read-out: Minimum Inhibitory Concentration (MIC)
Experimental: (§1) The antimicrobial activity in vitro of the present compound (I) was determined.
(§2) Measurement of Minimum Inhibitory Concentration (MIC, μg/ml) was conducted according to the standard method of the Japan Society for Chemotherapy and the amount of bacteria for inoculation was 1000 cfu/spot, and sensitive disc medium was used as the test medium, and conducted using agar plate incubation.
(§3) In the tables, the unit of the values of inhibitory activity is μg/ml.

[2] = system: Pseudomonas aeruginosa SR24; assay: as above; details: Pseudomonas aeruginosa SR24, no enzyme, ceftazidime sensitive strain, 1000 cfu/spot, sensitive disc medium; for MIC: read-out: Minimum Inhibitory Concentration (MIC)
Experimental: as §1, §2, §3

[3] = system: Acinetobacter baumannii SR24396; assay: as above; details: Acinetobacter baumannii SR24396, no enzyme, 1000 cfu/spot, sensitive disc medium; for MIC: read-out: Minimum Inhibitory Concentration (MIC)
Experimental: as §1, §2, §3

[4] = system: Pseudomonas aeruginosa SR27060; assay: as above; details: Pseudomonas aeruginosa SR27060, IMP-1, MBL producer strain (carbapenem resistant strain), 1000 cfu/spot, sensitive disc medium; for MIC: read-out: Minimum Inhibitory Concentration (MIC)
Experimental: as §1, §2, §3

[5] = system: Stenotrophomonas maltophilia SR21970; assay: Minimum Inhibitory Concentration (MIC), agar plate incubation, CLSI method; details: Stenotrophomonas maltophilia SR21970, L-1, MBL producer strain (carbapenem resistant strain), 10000 cfu/spot, Mueller-Hinton agar medium; for MIC: read-out: Minimum Inhibitory Concentration (MIC)
Experimental: as §1
Measurement of Minimum Inhibitory Concentration (MIC, μg/ml) was conducted according to the CLSI (Clinical and Laboratory Standards Institute) and the amount of bacteria for inoculation was 10000 cfu/spot, and Mueller-Hinton agar medium was used as the test medium, and conducted using agar plate incubation.
as §3

| SMILES | Minimum Inhibitory Concentration (MIC) [1] [mg/L] | Minimum Inhibitory Concentration (MIC) [2] [mg/L] | Minimum Inhibitory Concentration (MIC) [3] [mg/L] | Minimum Inhibitory Concentration (MIC) [4] [mg/L] | Minimum Inhibitory Concentration (MIC) [5] [mg/L] | MIC [1] [mg/L] | MIC [2] [mg/L] | MIC [3] [mg/L] | MIC [4] [mg/L] | MIC [5] [mg/L] |
| --- | --- | --- | --- | --- | --- | --- | --- | --- | --- | --- |
| C[N+]1(CC2=C(C(=O)[O-])N3C(=O)C(NC(=O)C(=NOC(CC(=O)[O-])C(=O)[O-])c4csc(N)n4)C3SC2)C2CCC1CN(C(=O)c1ccc(O)c(O)c1Cl)C2.[Na+].[Na+] (stereo not drawn) [II-7] | 0.5 | 0.25 | 0.125 | 0.5 | 0.5 | – | – | – | – | – |
| C[C@@H](O/N=C(\C(=O)N[C@@H]1C(=O)N2C(C(=O)O)=C(C[N+]34CCC[C@H]3CN(C(=O)c3ccc(O)c(O)c3Cl)CC4)CS[C@H]12)c1csc(N)n1)C(=O)[O-] (stereo partly drawn) [Compound I-63] | – | – | – | – | – | 1 (≈ 1.33 µM) | 0.063 (≈ 0.084 µM) | 0.25 (≈ 0.333 µM) | 0.5 (≈ 0.666 µM) | 0.5 (≈ 0.666 µM) |
| CC(ON=C(C(=O)NC1C(=O)N2C(C(=O)[O-])=C(C[N+]34CCC(CNC(=O)c5ccc(O)c(O)c5Cl)(CC3)CC4)CSC12)c1csc(N)n1)C(=O)[O-].[Na+] (stereo not drawn) [Compound I-35] | 1 | 0.063 | 0.5 | 0.25 | 1 | – | – | – | – | – |
| CC(ON=C(C(=O)NC1C(=O)N2C(C(=O)[O-])=C(C[N+]3(CCNC(=O)c4ccc(O)c(O)c4Cl)CCCC3)CSC12)c1csc(N)n1)C(=O)[O-].[Na+] (stereo not drawn) [Compound I-36] | 0.5 | 0.125 | 0.5 | 0.25 | 1 | – | – | – | – | – |
| Nc1nc(C(=NOC(CC(=O)[O-])C(=O)[O-])C(=O)NC2C(=O)N3C(C(=O)[O-])=C(C[N+]45CCCC4CN(C(=O)c4cc(O)c(O)c(F)c4)CC5)CSC23)cs1.[Na+].[Na+] (stereo not drawn) [II-16] | 0.25 | 0.125 | 0.125 | 0.5 | 0.5 | – | – | – | – | – |
| CC(C)(O/N=C(\C(=O)N[C@@H]1C(=O)N2C(C(=O)O)=C(C[N+]3(CCNC(=O)c4cc(O)c(O)c(Cl)c4)CCCC3)CS[C@H]12)c1csc(N)n1)C(=O)[O-] [II-49] | – | – | – | – | – | 0.125 (≈ 0.166 µM) | 0.125 (≈ 0.166 µM) | 0.125 (≈ 0.166 µM) | 0.5 (≈ 0.665 µM) | 0.5 (≈ 0.665 µM) |
| CC(C)(O/N=C(\C(=O)N[C@@H]1C(=O)N2C(C(=O)[O-])=C(C[N+]3(C)CCC4(CCN(C(=O)c5ccc(O)c(O)c5Cl)CC4)CC3)CS[C@H]12)c1csc(N)n1)C(=O)[O-].[Na+] [Compound I-42] | 0.25 | 0.063 | 0.25 | 1 | 1 | – | – | – | – | – |
| NC(=O)CC(ON=C(C(=O)NC1C(=O)N2C(C(=O)[O-])=C(C[N+]34CCCC3CN(C(=O)c3ccc(O)c(O)c3Cl)CC4)CSC12)c1csc(N)n1)C(=O)[O-].[Na+] (stereo not drawn) [Compound I-38] | 1 | 0.125 | 0.25 | 2 | 1 | – | – | – | – | – |
| C[N+]1(CC2=C(C(=O)[O-])N3C(=O)[C@@H](NC(=O)/C(=N\O[C@@H](CC(=O)[O-])C(=O)[O-])c4csc(N)n4)[C@H]3SC2)[C@@H]2CC[C@H]1C[C@@H](NC(=O)c1cc(O)c(O)c(F)c1)C2.[Na+].[Na+] (stereo partly drawn) [II-48] | 0.25 | 0.063 | 0.125 | 0.25 | 0.5 | – | – | – | – | – |
| CC(ON=C(C(=O)NC1C(=O)N2C(C(=O)[O-])=C(C[N+]34CCC(CC3)N(C(=O)c3ccc(O)c(O)c3Cl)CC4)CSC12)c1csc(N)n1)C(=O)[O-].[Na+] (stereo not drawn) [Compound I-23] | 0.5 | 0.063 | 0.125 | 0.5 | 1 | – | – | – | – | – |
| C[N+]1(CC2=C(C(=O)[O-])N3C(=O)[C@@H](NC(=O)/C(=N\O[C@@H](CC(=O)O)C(=O)O)c4csc(N)n4)[C@H]3SC2)[C@@H]2CC[C@H]1C[C@H](NC(=O)c1ccc(O)c(O)c1Cl)C2 (stereo partly drawn) [II-9] | – | – | – | – | – | 1 (≈ 1.24 µM) | 0.25 (≈ 0.309 µM) | 0.063 (≈ 0.0779 µM) | 0.5 (≈ 0.619 µM) | 0.25 (≈ 0.309 µM) |
| C[N+]1(CC2=C(C(=O)[O-])N3C(=O)[C@@H](NC(=O)/C(=N\O[C@@H](CC(=O)O)C(=O)O)c4csc(N)n4)[C@H]3SC2)[C@@H]2CC[C@H]1C[C@@H](NC(=O)c1ccc(O)c(O)c1Cl)C2 (stereo partly drawn) [II-3] | – | – | – | – | – | 0.5 (≈ 0.619 µM) | 0.125 (≈ 0.155 µM) | 0.125 (≈ 0.155 µM) | 0.5 (≈ 0.619 µM) | 0.5 (≈ 0.619 µM) |
| C[N+]1(CC2=C(C(=O)[O-])N3C(=O)C(NC(=O)C(=NOC(CC(=O)[O-])C(=O)[O-])c4csc(N)n4)C3SC2)CC2CN(C(=O)c3ccc(O)c(O)c3Cl)CC2C1.[Na+].[Na+] (stereo not drawn) [Compound I-41] | 0.5 | 0.125 | 0.125 | 0.5 | 1 | – | – | – | – | – |
| CC(C)(O/N=C(\C(=O)N[C@@H]1C(=O)N2C(C(=O)[O-])=C(C[N+]3(Cc4nnc(-c5ccc(O)c(O)c5Cl)o4)CCCC3)CS[C@H]12)c1csc(N)n1)C(=O)[O-].[Na+] [Compound I-1] | – | – | – | – | – | 0.25 | 0.063 | 0.25 | 0.25 | 1 |
| CC(C)(ON=C(C(=O)NC1C(=O)N2C(C(=O)[O-])=C(C[N+]34CCCC3CN(C(=O)c3ccc(O)c(O)c3Cl)CC4)CSC12)c1csc(N)n1)C(=O)[O-].[Na+] (stereo not drawn) [Compound I-15] | 0.25 | 0.063 | 0.25 | 0.5 | 1 | – | – | – | – | – |
| Nc1nc(/C(=N/O[C@@H](CC(=O)[O-])C(=O)[O-])C(=O)N[C@@H]2C(=O)N3C(C(=O)[O-])=C(C[N+]4(CCNC(=O)c5ccc(O)c(O)c5Cl)CCCC4)CS[C@H]23)cs1.[Na+].[Na+] [Compound I-59] | 0.25 | 0.063 | 0.125 | 0.25 | 0.5 | – | – | – | – | – |
| CC(C)(O/N=C(\C(=O)N[C@@H]1C(=O)N2C(C(=O)O)=C(C[N+]3(CCNC(=O)c4ccc(O)c(O)c4F)CCCC3)CS[C@H]12)c1csc(N)n1)C(=O)[O-] [II-29] | – | – | – | – | – | 0.125 (≈ 0.17 µM) | 0.125 (≈ 0.17 µM) | 0.25 (≈ 0.34 µM) | 0.5 (≈ 0.68 µM) | 0.5 (≈ 0.68 µM) |
| Nc1nc(C(=NOC(CC(=O)[O-])C(=O)[O-])C(=O)NC2C(=O)N3C(C(=O)[O-])=C(C[N+]45CCCC4CN(C(=O)c4ccc(O)c(O)c4F)CC5)CSC23)cs1.[Na+].[Na+] (stereo not drawn) [II-28] | 0.25 | 0.125 | 0.125 | 1 | 0.5 | – | – | – | – | – |
| C[N+]1(CC2=C(C(=O)[O-])N3C(=O)[C@@H](NC(=O)/C(=N\O[C@@H](CC(=O)[O-])C(=O)[O-])c4csc(N)n4)[C@H]3SC2)[C@@H]2CC[C@H]1C[C@@H](NC(=O)c1ccc(O)c(O)c1F)C2.[Na+].[Na+] (stereo partly drawn) [II-37] | 0.5 | 0.25 | 0.25 | 0.25 | 0.5 | – | – | – | – | – |
| CC(C)(O/N=C(\C(=O)N[C@@H]1C(=O)N2C(C(=O)O)=C(C[N+]3(C)[C@@H]4CC[C@H]3C[C@@H](NC(=O)c3ccc(O)c(O)c3F)C4)CS[C@H]12)c1csc(N)n1)C(=O)[O-] (stereo partly drawn) [II-36] | – | – | – | – | – | 0.5 (≈ 0.656 µM) | 0.25 (≈ 0.328 µM) | 0.25 (≈ 0.328 µM) | 0.5 (≈ 0.656 µM) | 1 (≈ 1.31 µM) |
| Nc1nc(/C(=N/O[C@@H](CC(=O)[O-])C(=O)[O-])C(=O)N[C@@H]2C(=O)N3C(C(=O)[O-])=C(C[N+]45CCC[C@H]4CN(C(=O)c4cc(O)c(O)c(Cl)c4)CC5)CS[C@H]23)cs1.[Na+].[Na+] (stereo partly drawn) [II-57] | 0.25 | 0.063 | 0.063 | 0.5 | 0.5 | – | – | – | – | – |
